Experiment [1] concerns the target CAMKK1 (Homo sapiens, UniProt Q8N5S9). Briefly: kinase binding constant, 11-point dose response (T7 phage, qPCR). As to conditions: >30 = no inhibition at highest concentration tested. The method, then:
(§1) Kinase inhibition studies were performed by methods well known in the prior art (Fabian, M. A. et al. Nat. Biotechnol. 2005, 23, 329). Briefly, kinase-tagged T7 phage strains were prepared in an E. coli host derived from the BL21 strain. E. coli were grown to log-phase and infected with T7 phage and incubated with shaking at 32° C. until lysis. The lysates were centrifuged and filtered to remove cell debris. […] The liganded beads were blocked with excess biotin and washed with blocking buffer (SeaBlock (Pierce); 1% BSA, 0.05% Tween 20, 1 mM DTT) to remove unbound ligand and to reduce non-specific binding. […] All reactions were performed in polystyrene 96-well plates in a final volume of 0.135 ml. […] The kinase concentration in the eluates was measured by qPCR.
(§2) An 11-point 3-fold serial dilution of each test compound (from 30 μM to 0.5 nM) was prepared in 100% DMSO at 100× final test concentration and subsequently diluted to 1× in the assay (final DMSO concentration=1%). Binding constants (KDS) were calculated with a standard dose-response curve using a 5-point sigmoidal (Hill) equation.
A general note: Real-time PCR tracks product formation cycle by cycle.

The target in experiment [2] is CAMK2G (Homo sapiens, UniProt Q13555). Described as above. The conditions noted are these: >30 = no inhibition at highest concentration tested. The method, then: as §1, §2
Chain of CAMK2G (Q13555 whole entry): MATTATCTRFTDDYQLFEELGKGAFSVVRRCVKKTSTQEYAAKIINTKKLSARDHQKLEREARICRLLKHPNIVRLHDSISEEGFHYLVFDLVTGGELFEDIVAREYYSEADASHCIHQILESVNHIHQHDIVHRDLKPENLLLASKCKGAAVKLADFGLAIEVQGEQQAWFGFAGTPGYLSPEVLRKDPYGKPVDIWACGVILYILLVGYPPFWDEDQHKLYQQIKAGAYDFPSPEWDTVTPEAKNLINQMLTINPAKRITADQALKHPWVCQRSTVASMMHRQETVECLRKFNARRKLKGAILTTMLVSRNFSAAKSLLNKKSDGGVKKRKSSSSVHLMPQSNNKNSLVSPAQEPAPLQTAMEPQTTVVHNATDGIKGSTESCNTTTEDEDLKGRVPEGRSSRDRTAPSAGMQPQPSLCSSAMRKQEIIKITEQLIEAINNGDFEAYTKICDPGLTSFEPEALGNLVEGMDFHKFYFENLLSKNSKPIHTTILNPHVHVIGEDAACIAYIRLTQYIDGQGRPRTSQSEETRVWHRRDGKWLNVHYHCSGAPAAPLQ
Experiment [3] concerns the target AAK1 (Homo sapiens, UniProt Q2M2I8). Described as above. As to conditions: >30 = no inhibition at highest concentration tested. The method, then: as §1, §2
For experiment [4], the target named is T1, RSK1 (Homo sapiens, UniProt Q15418).
T1 construct: RPS6KA1(Kin.Dom.2-C-terminal)
T1 sequence (Q15418 whole entry): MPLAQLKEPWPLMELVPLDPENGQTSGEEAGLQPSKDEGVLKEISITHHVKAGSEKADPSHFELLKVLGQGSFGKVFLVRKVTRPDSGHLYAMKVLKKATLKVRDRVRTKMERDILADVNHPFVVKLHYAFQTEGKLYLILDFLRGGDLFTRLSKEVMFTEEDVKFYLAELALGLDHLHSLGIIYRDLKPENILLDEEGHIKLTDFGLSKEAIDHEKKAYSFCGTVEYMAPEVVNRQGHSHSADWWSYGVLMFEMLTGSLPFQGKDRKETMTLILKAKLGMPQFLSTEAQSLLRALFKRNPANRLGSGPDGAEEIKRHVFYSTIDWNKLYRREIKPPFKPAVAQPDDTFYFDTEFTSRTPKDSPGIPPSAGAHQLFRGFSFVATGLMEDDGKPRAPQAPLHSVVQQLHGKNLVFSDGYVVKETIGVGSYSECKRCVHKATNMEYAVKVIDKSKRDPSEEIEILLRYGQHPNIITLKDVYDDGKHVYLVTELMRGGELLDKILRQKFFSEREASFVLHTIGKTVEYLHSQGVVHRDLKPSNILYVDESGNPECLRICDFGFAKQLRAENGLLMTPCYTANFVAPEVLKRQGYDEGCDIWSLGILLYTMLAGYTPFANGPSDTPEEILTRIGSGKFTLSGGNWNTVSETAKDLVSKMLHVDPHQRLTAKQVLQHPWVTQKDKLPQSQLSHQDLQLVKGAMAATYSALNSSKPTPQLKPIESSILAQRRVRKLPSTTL
The experiment is described as above. As to conditions: >30 = no inhibition at highest concentration tested. The method, then: as §1, §2

The subject of experiment [5] is new blood vessel growth from isolated rat aorta fragments. The experiment is described as follows: rat aorta fragment vessel outgrowth (anti-angiogenic) assay in fibrin gel. It is filed as cell-based. The conditions noted are these: 120 h, read-out: Anti-Angiogenesis Activity IC50 (concentration that inhibits 50% of the new blood vessel growth); rat aorta fragments, day 5; >100 = no inhibition under the assay conditions. The method, then: A potentially non-toxic method of treating cancer is to inhibit angiogenesis. The human anti-angiogenic and therefore antiproliferative action of drugs can be assessed by many methods well known in the prior art. […] Briefly, thoracic aortas were excized from 3-9 month-old female Fischer rats, cross-sectioned at 1 mm intervals and embedded individually in 0.5 ml of a fibrin gel containing 5 μg/ml of aprotinin (to prevent fibrinolysis) in each well of a 48-well culture plate. Immediately after vessel embedding, 0.5 ml/well of medium M199, supplemented with 20% foetal calf serum, 0.1% E-aminocaproic acid, 1% L-glutamine and antibiotics, was added. Each test compound (10 mg/ml, dissolved in DMSO) was added to the medium (maximum final concentration of test compound 100 μg/ml) and each treatment was performed in six wells. Control cultures received medium containing 0.1% DMSO but without any test compound. […] Vessels were cultured at 37° C. in 5% CO2 in air for 5 days and the medium, with or without test compound, was changed on day 4. Vessel growth was quantified manually under 40× magnification on day 5, with growth being estimated as the percentage of the field (×40) around the vessel fragment that was occupied by vessel outgrowths. By counting the number of vessels formed after 5 days at three to six different concentrations (in triplicate) it is possible to determine an IC50 values for each compound compared to a positive and negative (solvent) control. The percentage inhibition (0-100%) is plotted against compound concentration and a 3-parameter sigmoidal (dose-response) curve fitted (Graphpad Prism v 4) by non-linear regression.

Experiment [6] deals with YANK2 (Homo sapiens, UniProt Q9NY57). Briefly: kinase binding constant, 11-point dose response (T7 phage, qPCR). The conditions noted are these: >30 = no inhibition at highest concentration tested. The method, then: as §1, §2
Chain of YANK2 (Q9NY57 whole entry): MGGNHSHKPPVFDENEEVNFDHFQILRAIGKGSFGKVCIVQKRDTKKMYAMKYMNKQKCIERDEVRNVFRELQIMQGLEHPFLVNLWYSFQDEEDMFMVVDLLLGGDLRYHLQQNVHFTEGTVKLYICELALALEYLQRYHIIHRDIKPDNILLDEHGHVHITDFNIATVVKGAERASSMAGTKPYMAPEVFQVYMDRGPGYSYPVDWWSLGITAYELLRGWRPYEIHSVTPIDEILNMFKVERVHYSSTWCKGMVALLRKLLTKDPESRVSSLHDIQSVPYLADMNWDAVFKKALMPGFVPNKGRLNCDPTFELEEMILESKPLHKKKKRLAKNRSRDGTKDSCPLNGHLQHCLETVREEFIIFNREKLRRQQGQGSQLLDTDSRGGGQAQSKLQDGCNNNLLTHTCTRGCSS
Experiment [7] deals with T2, IRAK3 (Homo sapiens, UniProt Q9Y616).
T2 sequence (Q9Y616 1-596): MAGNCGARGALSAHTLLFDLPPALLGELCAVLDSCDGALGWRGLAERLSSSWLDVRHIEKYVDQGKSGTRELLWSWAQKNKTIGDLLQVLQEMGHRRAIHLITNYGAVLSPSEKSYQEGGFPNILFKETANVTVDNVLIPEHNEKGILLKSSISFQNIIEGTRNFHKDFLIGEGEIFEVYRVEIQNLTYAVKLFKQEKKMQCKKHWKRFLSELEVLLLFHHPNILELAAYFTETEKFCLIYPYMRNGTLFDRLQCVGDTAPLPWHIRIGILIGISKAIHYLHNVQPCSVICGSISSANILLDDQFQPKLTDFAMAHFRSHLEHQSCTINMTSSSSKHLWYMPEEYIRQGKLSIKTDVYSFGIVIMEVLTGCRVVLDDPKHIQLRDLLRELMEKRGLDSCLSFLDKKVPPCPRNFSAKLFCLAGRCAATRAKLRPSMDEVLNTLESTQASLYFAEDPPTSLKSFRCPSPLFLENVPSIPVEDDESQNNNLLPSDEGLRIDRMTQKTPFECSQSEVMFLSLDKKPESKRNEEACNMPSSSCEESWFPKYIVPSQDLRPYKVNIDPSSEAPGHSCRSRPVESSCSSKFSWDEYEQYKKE
The experiment is described as above. The conditions noted are these: >30 = no inhibition at highest concentration tested. The protocol:
as §1, §2

Experiment [8] has as its target T3, DYRK2 (Homo sapiens, UniProt Q92630).
T3 sequence (Q92630 1-601): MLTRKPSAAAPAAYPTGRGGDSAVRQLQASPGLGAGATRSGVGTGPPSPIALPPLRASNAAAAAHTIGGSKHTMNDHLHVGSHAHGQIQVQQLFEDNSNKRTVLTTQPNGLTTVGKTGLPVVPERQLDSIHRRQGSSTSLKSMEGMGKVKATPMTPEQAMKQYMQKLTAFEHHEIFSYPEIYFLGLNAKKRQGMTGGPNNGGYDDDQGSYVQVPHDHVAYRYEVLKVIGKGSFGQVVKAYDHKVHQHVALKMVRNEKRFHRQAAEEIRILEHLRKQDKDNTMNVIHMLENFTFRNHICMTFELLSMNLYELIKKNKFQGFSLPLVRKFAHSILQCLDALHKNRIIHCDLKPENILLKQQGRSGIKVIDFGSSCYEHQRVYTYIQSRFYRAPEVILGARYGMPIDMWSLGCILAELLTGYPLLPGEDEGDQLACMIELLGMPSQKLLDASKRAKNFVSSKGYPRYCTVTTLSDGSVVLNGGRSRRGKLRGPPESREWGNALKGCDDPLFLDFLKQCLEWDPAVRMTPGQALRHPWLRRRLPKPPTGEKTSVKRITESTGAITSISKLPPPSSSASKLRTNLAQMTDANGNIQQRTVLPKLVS
Described as above. The conditions noted are these: >30 = no inhibition at highest concentration tested. The method, then:
as §1, §2

In brackets after ≈: the same amount, converted by molar mass.

Chain of CAMKK1 (Q8N5S9 whole entry): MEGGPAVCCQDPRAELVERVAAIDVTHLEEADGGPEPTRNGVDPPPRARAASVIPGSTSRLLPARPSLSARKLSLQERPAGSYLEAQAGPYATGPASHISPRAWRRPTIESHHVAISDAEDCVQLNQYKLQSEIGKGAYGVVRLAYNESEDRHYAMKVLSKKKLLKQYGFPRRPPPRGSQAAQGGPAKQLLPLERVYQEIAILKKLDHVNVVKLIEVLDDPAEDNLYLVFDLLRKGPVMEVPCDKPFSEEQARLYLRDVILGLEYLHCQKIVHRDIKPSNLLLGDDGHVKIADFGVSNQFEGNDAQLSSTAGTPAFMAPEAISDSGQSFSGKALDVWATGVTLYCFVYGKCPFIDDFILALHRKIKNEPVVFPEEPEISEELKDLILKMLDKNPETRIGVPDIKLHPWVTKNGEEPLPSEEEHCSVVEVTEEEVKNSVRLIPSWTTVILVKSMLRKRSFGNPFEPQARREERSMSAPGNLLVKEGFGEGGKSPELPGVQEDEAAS
Chain of AAK1 (Q2M2I8 whole entry): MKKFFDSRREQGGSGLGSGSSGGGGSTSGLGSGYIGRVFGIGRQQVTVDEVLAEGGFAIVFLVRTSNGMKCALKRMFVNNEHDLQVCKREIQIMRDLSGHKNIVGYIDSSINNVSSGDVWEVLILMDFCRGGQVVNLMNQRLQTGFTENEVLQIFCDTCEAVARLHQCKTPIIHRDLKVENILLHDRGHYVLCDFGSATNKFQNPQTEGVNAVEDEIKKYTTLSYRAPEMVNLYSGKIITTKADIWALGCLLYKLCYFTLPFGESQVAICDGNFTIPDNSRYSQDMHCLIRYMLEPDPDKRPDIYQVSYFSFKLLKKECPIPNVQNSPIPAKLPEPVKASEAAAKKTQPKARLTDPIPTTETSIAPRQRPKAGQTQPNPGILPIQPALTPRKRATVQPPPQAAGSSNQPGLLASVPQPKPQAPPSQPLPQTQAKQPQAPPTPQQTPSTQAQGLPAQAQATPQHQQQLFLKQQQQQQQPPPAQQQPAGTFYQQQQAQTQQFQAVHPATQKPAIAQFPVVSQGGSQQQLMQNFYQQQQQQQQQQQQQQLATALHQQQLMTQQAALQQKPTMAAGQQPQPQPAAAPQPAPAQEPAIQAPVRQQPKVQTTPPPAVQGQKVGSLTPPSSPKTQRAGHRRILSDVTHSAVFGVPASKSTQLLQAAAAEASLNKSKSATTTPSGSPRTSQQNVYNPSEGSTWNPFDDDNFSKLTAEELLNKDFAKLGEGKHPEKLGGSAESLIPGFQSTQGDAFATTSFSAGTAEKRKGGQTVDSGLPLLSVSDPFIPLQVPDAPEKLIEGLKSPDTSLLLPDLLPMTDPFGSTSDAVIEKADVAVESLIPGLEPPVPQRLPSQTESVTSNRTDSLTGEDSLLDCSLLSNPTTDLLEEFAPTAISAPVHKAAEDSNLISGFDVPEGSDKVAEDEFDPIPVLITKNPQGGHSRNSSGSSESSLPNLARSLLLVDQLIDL

One may read the Kd as the concentration at which binding is half-saturated. Lower therefore signals tighter binding. On to `Nc1nc2c(-c3ccccn3)nccc2[nH]1` [drawing 35, 4-(pyrid-2-yl)-1H-imidazo[4,5-c]pyridin-2-amine], for which the Kd was > 30000 nM in experiment [1], > 30000 nM in experiment [2], 1500 nM in experiment [3] and 530 nM in experiment [4].

Take `Nc1nc2c(-c3cc(Br)c(Br)[nH]3)nccc2[nH]1` [Ageladine A, ageladine A, reference compound]: the IC50 in experiment [5] was found to be 25 µg/mL (≈ 70 µM).

With `Nc1nc2c(-c3cnc4ccccc4c3)nccc2[nH]1` [drawing 36, 4-(quinolin-3-yl)-1H-imidazo[4,5-c]pyridin-2-amine], the Kd in experiment [6] is > 30000 nM; in experiment [7], 8900 nM; in experiment [8], 970 nM.

The record behind these values is patent US20110152313A1 (MACQUARIE UNIVERSITY, priority 2008, published 2011).
